System: CHO IL-1R1 reporter cell line stimulated with IL-1β
Assay: NanoBiT reporter assay, CHO IL-1R1 cells, IL-1β driven
Assay type: cell-based
Parameters: average: scale not given here
Details: for average: IL-1beta
Method: Reporter cell system for NanoBiT assay
CHO IL-36R or CHO IL-1R1 reporter cell lines, prepared internally (Klemens Ka u p ma n n ), based on tagged IL-1RAcP and Myd88 proteins using the NanoBiT complementation system, were seeded at a densi ty of 10’000 cells/well in 30 µL of OptiMEM + 0.1 % FCS medium using 384-well plates (white, TCT), for 24 hours.
Before the treatment, the medium was removed, 20 µL of NanoGlo substrate, (#N2012, Pr o me g a ) were added to the wells. Following substrate addi ti on, 240 nL of compound were added to the wells using an ECH O dispenser device. Then, 3.76 µL of the ligand IL-36g (Novartis) at 200 ng/mL end concentration or recombinant IL-1b (Novartis) at 500 pg/mL end concentration were added to the mix. Luminescence was measured at 405 nm after 30 min incubation (Pherastar reader). […]

## Cc1ccc2c(c1)NC(=O)[C@@]2(c1cn[nH]c1)c1cc(-c2ccc(C(=O)O)cc2C(=O)O)ccc1O [Compound (S)-2]
  IL-1β-driven NanoBiT reporter activity: inhibited the reporter activity driven
EXP1, conc 0.00610352 uM
  average: -2.539
EXP1, conc 0.012207 uM
  average: 1.596
EXP1, conc 0.0244141 uM
  average: -3.451
EXP1, conc 0.0488281 uM
  average: 3.112
EXP1, conc 0.0976562 uM
  average: 2.615
EXP1, conc 0.195312 uM
  average: -0.4746
EXP1, conc 0.390625 uM
  average: 9.543
EXP1, conc 0.78125 uM
  average: 7.593
EXP1, conc 1.5625 uM
  average: 13.469
EXP1, conc 3.125 uM
  average: 26.7566
EXP1, conc 6.25 uM
  average: 37.1219
EXP1, conc 12.5 uM
  average: 46.91
EXP1, conc 25 uM
  average: 52.2595
EXP1, conc 50 uM
  average: 56.8016
EXP1, conc 100 uM
  average: 68.8694
EXP2, conc 0.00610352 uM
  average: -2.716
EXP2, conc 0.012207 uM
  average: 3.9057
EXP2, conc 0.0244141 uM
  average: -3.335
EXP2, conc 0.0488281 uM
  average: 6.501
EXP2, conc 0.0976562 uM
  average: 5.016
EXP2, conc 0.195312 uM
  average: 1.522
EXP2, conc 0.390625 uM
  average: 11.9124
EXP2, conc 0.78125 uM
  average: 10.8854
EXP2, conc 1.5625 uM
  average: 17.5198
EXP2, conc 3.125 uM
  average: 31.5581
EXP2, conc 6.25 uM
  average: 41.289
EXP2, conc 12.5 uM
  average: 51.7241
EXP2, conc 25 uM
  average: 56.0031
EXP2, conc 50 uM
  average: 59.3287
EXP2, conc 100 uM
  average: 71.2739
EXP3, conc 0.00610352 uM
  average: 1.19
EXP3, conc 0.012207 uM
  average: 3.77
EXP3, conc 0.0244141 uM
  average: 3.912
EXP3, conc 0.0488281 uM
  average: 4.68
EXP3, conc 0.0976562 uM
  average: -1.021
EXP3, conc 0.195312 uM
  average: 3.354
EXP3, conc 0.390625 uM
  average: 4.389
EXP3, conc 0.78125 uM
  average: 9.349
EXP3, conc 1.5625 uM
  average: 13.3994
EXP3, conc 3.125 uM
  average: 22.0107
EXP3, conc 6.25 uM
  average: 30.3621
EXP3, conc 12.5 uM
  average: 43.476
EXP3, conc 25 uM
  average: 49.8685
EXP3, conc 50 uM
  average: 57.8931
EXP3, conc 100 uM
  average: 64.0514
